According to patent publication US7678380B2, “Cosmetic treatment method for fighting against skin ageing effects” (LVMH Recherche, priority 1996, dated 2010):
Read-outs that look alike come from different tables or passages of the source.

Tested on: adhesion of normal human keratinocytes to type IV collagen
Conditions: for percentage increase in adhesion: compared with control cultures; for A = adhesion in μg of protein per well (mean): keratinocytes of a donor, control 3.52
Procedure: Coating of the Adhesion Surfaces with Type IV Collagen
Wells of microplates (Falcon) are covered with 6 μg/cm^2 of sterile type IV human collagen (from Sigma).
Each well is then incubated overnight at +4° C. with a 4 mg/ml solution of bovine albumin, BSA, from Sigma.
The wells are then rinsed twice with a phosphate buffer, PBS (phosphate buffered saline), from Gibco.
Preparation of the Cultures of Normal Human Keratinocytes
The skin fragments are incubated in 0.25% w/v trypsin for 18 hours at +4° C. to separate the dermis and epidermis and to obtain, by agitation, a suspension of epidermal cells. The trypsin is neutralized with fetal calf serum, FCS, from Gibco.
The cells are inoculated into flasks defining a surface area of 75 cm^2 and are cultured in keratinocyte proliferation medium, K-SFM, from Gibco, to the point of confluence, when they are subcultured.
The cells used for the experiments for adhesion to the collagen substrate were not subcultured beyond the first subculture (called P0 or P1).
The keratinocytes are then incubated for 30 minutes at +4° C. before the step for adhesion to the substrate coated with collagen IV is carried out.
Measurement of the Adhesion of the Keratinocytes to the Type IV Collagen
The keratinocytes are inoculated into each well at a density of 93,000 cells/cm^2 in E 199 medium from Gibco, containing 2 mM L-glutamine from Gibco and 4 mg/ml of BSA (bovine serum albumin). After incubation for one hour at +4° C., the wells are rinsed with PBS, the adhering cells are then lyzed with 0.1 N sodium hydroxide solution and the cellular proteins are then quantified by means of the calorimetric method and bicinchoninic acid (BCA from Sigma).
A calibration is performed in parallel with BSA solubilized in 0.1 N sodium hydroxide solution, enabling the optical density (OD) values to be converted to micrograms (μg) of proteins per well.
These adhesion values between treated and untreated cells were compared by the 0.7 Student t-test at the p=0.05 threshold in order to assess their level of significance.

Row | SMILES | percentage increase in adhesion (0.25 mM) | A = adhesion in μg of protein per well (mean) (0.25 mM) | A = adhesion in μg of protein per well (mean) (0.5 mM) | percentage increase in adhesion (1 mM) | A = adhesion in μg of protein per well (mean) (1 mM)
1 | N[C@@H](CC(=O)[O-])C(=O)[O-].[Mg+2] [Magnesium aspartate, magnesium aspartate] | +54% | 5.39 μg of protein per well |  |  | 
2 | [Cl-].[Cl-].[Mg+2] [Magnesium chloride, magnesium chloride] |  | 4.32 μg of protein per well | 4.54 μg of protein per well | +31% | 4.57 μg of protein per well
